Measured values from ChEMBL document CHEMBL2346651, “Structure-activity relationship study of tachykinin peptides for the development of novel neurokinin-3 receptor selective agonists” (Bioorg Med Chem, 2013).
Residues, ends and D or L forms follow the SMILES beside them.

Legend:
Neuromedin-K receptor [1] = target: T1, Neuromedin-K receptor (Homo sapiens, UniProt P29371); test: Displacement of ([125I]-His3, MePhe7)-NKB from NK3R (unknown origin) transfected in CHO cells by gamma counting analysis; type: cell-based
T1 sequence (P29371 whole entry): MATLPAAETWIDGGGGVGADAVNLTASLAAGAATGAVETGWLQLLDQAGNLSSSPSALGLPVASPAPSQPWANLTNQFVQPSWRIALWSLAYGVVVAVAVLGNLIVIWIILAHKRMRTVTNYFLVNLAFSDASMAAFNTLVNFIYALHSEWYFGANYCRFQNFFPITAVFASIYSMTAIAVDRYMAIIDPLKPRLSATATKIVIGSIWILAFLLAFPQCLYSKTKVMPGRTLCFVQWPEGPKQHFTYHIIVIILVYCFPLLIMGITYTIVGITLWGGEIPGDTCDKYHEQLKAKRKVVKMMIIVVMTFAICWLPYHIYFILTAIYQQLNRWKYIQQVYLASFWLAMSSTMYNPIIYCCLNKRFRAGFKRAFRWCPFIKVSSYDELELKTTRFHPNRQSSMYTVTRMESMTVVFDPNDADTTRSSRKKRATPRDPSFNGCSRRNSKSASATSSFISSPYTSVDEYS

[2] = target: Substance-P receptor (Homo sapiens) (UniProt P25103); test: Displacement of [125I]-BH-SP from NK1R (unknown origin) transfected in CHO cells at 10 uM by gamma counting analysis; type: cell-based
Chain of Substance-P receptor (Homo sapiens) (P25103 whole entry): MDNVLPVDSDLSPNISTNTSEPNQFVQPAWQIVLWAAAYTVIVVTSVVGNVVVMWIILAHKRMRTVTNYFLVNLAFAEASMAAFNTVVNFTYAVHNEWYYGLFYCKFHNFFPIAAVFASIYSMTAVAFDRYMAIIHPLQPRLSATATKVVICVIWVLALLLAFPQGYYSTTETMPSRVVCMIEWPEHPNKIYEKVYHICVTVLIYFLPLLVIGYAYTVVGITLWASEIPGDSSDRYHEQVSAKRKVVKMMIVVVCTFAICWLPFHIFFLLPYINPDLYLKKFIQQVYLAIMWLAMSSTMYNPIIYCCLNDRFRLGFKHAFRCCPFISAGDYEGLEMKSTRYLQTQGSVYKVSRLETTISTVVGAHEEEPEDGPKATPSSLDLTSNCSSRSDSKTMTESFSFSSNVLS

[3] = target: T2, Substance-K receptor (Homo sapiens) (UniProt P21452); test: Displacement of [125I]-NKA from NK2R (unknown origin) transfected in CHO cells at 10 uM by gamma counting analysis; type: cell-based
T2 sequence (whole entry): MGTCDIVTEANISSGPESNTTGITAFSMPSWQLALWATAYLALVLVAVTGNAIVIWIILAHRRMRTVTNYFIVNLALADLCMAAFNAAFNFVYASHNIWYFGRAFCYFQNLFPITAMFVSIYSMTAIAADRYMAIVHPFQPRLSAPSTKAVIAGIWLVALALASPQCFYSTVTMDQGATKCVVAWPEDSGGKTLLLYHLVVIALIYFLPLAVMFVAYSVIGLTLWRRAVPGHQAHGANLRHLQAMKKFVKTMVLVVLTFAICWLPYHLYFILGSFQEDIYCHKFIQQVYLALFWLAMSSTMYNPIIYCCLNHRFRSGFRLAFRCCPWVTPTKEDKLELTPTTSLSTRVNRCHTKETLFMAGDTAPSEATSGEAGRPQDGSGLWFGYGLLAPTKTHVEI

Neuromedin-K receptor [4] = target: T1, Neuromedin-K receptor; test: Agonist activity at NK3R (unknown origin) transfected in CHO cells assessed as calcium influx […]; type: functional, cell-based

Compound | IC50 (Neuromedin-K receptor [1]) [nM] | inhibition [2] [%] | inhibition [3] [%] | EC50 (Neuromedin-K receptor [4]) [nM]
CC[C@H](C)[C@H](NC(=O)[C@H](Cc1ccccc1)NC(=O)[C@H](C)NC(=O)[C@H](CC(=O)O)NC(=O)[C@H](CCCCN)NC(=O)[C@H](CO)NC(=O)[C@@H]1CCCN1C(=O)[C@@H]1CCC(=O)N1)C(=O)NCC(=O)N[C@@H](CC(C)C)C(=O)N[C@@H](CCSC)C(N)=O [ELEDOISIN] (HELM PEPTIDE1{[Glp].P.S.K.D.A.F.I.G.L.M.[am]}$$$$V2.0) | 96 | 100 | 95 | 
CSCC[C@H](NC(=O)[C@H](CC(C)C)NC(=O)CNC(=O)[C@H](Cc1ccccc1)N(C)C(=O)[C@H](Cc1ccccc1)NC(=O)[C@H](CC(=O)O)NC(=O)[C@H](CC(=O)O)NC(=O)[C@H](Cc1cnc[nH]1)NC(=O)[C@H](CCSC)NC(=O)[C@@H](N)CC(=O)O)C(N)=O (HELM PEPTIDE1{D.M.H.D.D.F.[meF].G.L.M.[am]}$$$$V2.0) | 38 | < 10 | < 10 | 0.04
H-KPRPDQFYGLM-NH2 |  | 101 | 95 | 
H-KPRPDQFYGLM-NH2 [BUFOKININ] | 2990 |  |  | 10.7
CSCC[C@H](NC(=O)[C@H](CC(C)C)NC(=O)CNC(=O)[C@H](Cc1ccccc1)N(C)C(=O)[C@H](Cc1ccccc1)NC(=O)[C@@H]1CCCN1C(=O)[C@H](CC(=O)O)NC(=O)[C@H](Cc1cnc[nH]1)NC(=O)[C@H](CCSC)NC(=O)[C@@H](N)CC(=O)O)C(N)=O (HELM PEPTIDE1{D.M.H.D.P.F.[meF].G.L.M.[am]}$$$$V2.0) | 45 | < 10 | 38 | 0.041
H-DTGDKFYGLM-NH2 [SIALOKININ II] | 1930 | 99 | 98 | 10.9
CSCC[C@H](NC(=O)[C@H](CC(C)C)NC(=O)CNC(=O)[C@H](Cc1ccc(O)cc1)NC(=O)[C@H](Cc1ccccc1)NC(=O)[C@H](CCC(=O)O)NC(=O)[C@H](CC(=O)O)NC(=O)[C@@H]1CCCN1C(=O)[C@H](CC(N)=O)NC(=O)[C@@H]1CCCN1C(=O)[C@@H]1CCC(=O)N1)C(N)=O (HELM PEPTIDE1{[Glp].P.N.P.D.E.F.Y.G.L.M.[am]}$$$$V2.0) | 710 | 98 | < 10 | 1.38
CSCC[C@H](NC(=O)[C@H](CC(C)C)NC(=O)CNC(=O)[C@@H](NC(=O)[C@H](Cc1ccccc1)NC(=O)[C@H](CCC(N)=O)NC(=O)[C@H](CC(=O)O)NC(=O)[C@H](CO)NC(=O)[C@H](CCCCN)NC(=O)[C@@H]1CCCN1C(=O)[C@@H](NC(=O)[C@@H](N)CC(=O)O)C(C)C)C(C)C)C(N)=O [KASSININ] | 100 |  |  | 0.21
CSCC[C@H](NC(=O)[C@H](CC(C)C)NC(=O)CNC(=O)[C@@H](NC(=O)[C@H](Cc1ccccc1)NC(=O)[C@H](CCC(=O)O)NC(=O)[C@H](CC(=O)O)NC(=O)[C@@H]1CCCN1C(=O)[C@H](CC(N)=O)NC(=O)[C@@H]1CCCN1C(=O)[C@@H]1CCC(=O)N1)C(C)C)C(N)=O (HELM PEPTIDE1{[Glp].P.N.P.D.E.F.V.G.L.M.[am]}$$$$V2.0) | 53 | 94 | 92 | 0.079
CSCC[C@H](NC(=O)[C@H](CC(C)C)NC(=O)CNC(=O)[C@H](Cc1ccccc1)N(C)C(=O)[C@H](Cc1ccccc1)NC(=O)[C@H](CCCNC(=N)N)NC(=O)[C@H](CC(=O)O)NC(=O)[C@H](Cc1cnc[nH]1)NC(=O)[C@H](CCSC)NC(=O)[C@@H](N)CC(=O)O)C(N)=O (HELM PEPTIDE1{D.M.H.D.R.F.[meF].G.L.M.[am]}$$$$V2.0) |  | 60 | 62 | 
CSCC[C@H](NC(=O)[C@H](CC(C)C)NC(=O)CNC(=O)[C@H](Cc1ccccc1)N(C)C(=O)[C@H](Cc1ccccc1)NC(=O)[C@H](CC(=O)O)NC(=O)[C@H](CC(=O)O)NC(=O)[C@@H]1CCCN1C(=O)[C@H](CCCN=C(N)N)NC(=O)[C@@H]1CCCN1C(=O)[C@@H](N)CCCCN)C(N)=O (HELM PEPTIDE1{K.P.R.P.D.D.F.[meF].G.L.M.[am]}$$$$V2.0) | 31 |  |  | 5.04
CSCC[C@H](NC(=O)[C@H](CC(C)C)NC(=O)CNC(=O)[C@H](Cc1ccccc1)N(C)C(=O)[C@H](Cc1ccccc1)NC(=O)[C@H](CC(=O)O)NC(=O)[C@H](CC(=O)O)NC(=O)[C@@H]1CCCN1C(=O)[C@H](CCCNC(=N)N)NC(=O)[C@@H]1CCCN1C(=O)[C@@H](N)CCCCN)C(N)=O (HELM PEPTIDE1{K.P.R.P.D.D.F.[meF].G.L.M.[am]}$$$$V2.0) |  | 26 | < 10 | 
CSCC[C@H](NC(=O)[C@H](CC(C)C)NC(=O)CNC(=O)[C@H](Cc1ccc(O)cc1)NC(=O)[C@H](Cc1ccccc1)NC(=O)[C@H](CCCCN)NC(=O)[C@H](CC(N)=O)NC(=O)[C@@H]1CCCN1C(=O)[C@H](CC(=O)O)NC(=O)[C@H](C)NC(=O)[C@@H]1CCC(=O)N1)C(N)=O [PHYSALAEMIN] | 1550 |  |  | 3.36

Continued by falling IC50 (Neuromedin-K receptor [1]), values first:

IC50 (Neuromedin-K receptor [1]) [nM] | inhibition [2] [%] | inhibition [3] [%] | EC50 (Neuromedin-K receptor [4]) [nM] | Compound
13 | 46 | 11 | 0.038 | CSCC[C@H](NC(=O)[C@H](CC(C)C)NC(=O)CNC(=O)[C@H](Cc1ccccc1)N(C)C(=O)[C@H](Cc1ccccc1)NC(=O)[C@H](CCC(N)=O)NC(=O)[C@H](CC(=O)O)NC(=O)[C@H](CO)NC(=O)[C@H](CCCCN)NC(=O)[C@@H]1CCCN1C(=O)[C@@H](NC(=O)[C@@H](N)CC(=O)O)C(C)C)C(N)=O (HELM PEPTIDE1{D.V.P.K.S.D.Q.F.[meF].G.L.M.[am]}$$$$V2.0)
7.5 | < 10 | < 10 | 0.024 | CSCC[C@H](NC(=O)[C@H](CC(C)C)NC(=O)CNC(=O)[C@H](Cc1ccccc1)N(C)C(=O)[C@H](Cc1ccccc1)NC(=O)[C@H](CCC(=O)O)NC(=O)[C@H](CC(=O)O)NC(=O)[C@H](Cc1cnc[nH]1)NC(=O)[C@H](CCSC)NC(=O)[C@@H](N)CC(=O)O)C(N)=O (HELM PEPTIDE1{D.M.H.D.E.F.[meF].G.L.M.[am]}$$$$V2.0)
6.9 | < 10 | 29 | 0.051 | CSCC[C@H](NC(=O)[C@H](CC(C)C)NC(=O)CNC(=O)[C@H](Cc1ccccc1)N(C)C(=O)[C@H](Cc1ccccc1)NC(=O)[C@H](CC(C)C)NC(=O)[C@H](CC(=O)O)NC(=O)[C@H](Cc1cnc[nH]1)NC(=O)[C@H](CCSC)NC(=O)[C@@H](N)CC(=O)O)C(N)=O (HELM PEPTIDE1{D.M.H.D.L.F.[meF].G.L.M.[am]}$$$$V2.0)
4.4 | < 10 | 33 | 0.012 | CSCC[C@H](NC(=O)[C@H](CC(C)C)NC(=O)CNC(=O)[C@H](Cc1ccccc1)N(C)C(=O)[C@H](Cc1ccccc1)NC(=O)[C@H](C)NC(=O)[C@H](CC(=O)O)NC(=O)[C@H](Cc1cnc[nH]1)NC(=O)[C@H](CCSC)NC(=O)[C@@H](N)CC(=O)O)C(N)=O (HELM PEPTIDE1{D.M.H.D.A.F.[meF].G.L.M.[am]}$$$$V2.0)
2.5 |  |  | 0.08 | CSCC[C@H](NC(=O)[C@H](CC(C)C)NC(=O)CNC(=O)[C@H](Cc1ccccc1)N(C)C(=O)[C@H](Cc1ccccc1)NC(=O)[C@H](CCCN=C(N)N)NC(=O)[C@H](CC(=O)O)NC(=O)[C@H](Cc1cnc[nH]1)NC(=O)[C@H](CCSC)NC(=O)[C@@H](N)CC(=O)O)C(N)=O (HELM PEPTIDE1{D.M.H.D.R.F.[meF].G.L.M.[am]}$$$$V2.0)
1.7 | < 10 | 41 | 0.032 | CSCC[C@H](NC(=O)[C@H](CC(C)C)NC(=O)CNC(=O)[C@H](Cc1ccccc1)N(C)C(=O)[C@H](Cc1ccccc1)NC(=O)[C@H](CCSC)NC(=O)[C@H](CC(=O)O)NC(=O)[C@H](Cc1cnc[nH]1)NC(=O)[C@H](CCSC)NC(=O)[C@@H](N)CC(=O)O)C(N)=O (HELM PEPTIDE1{D.M.H.D.M.F.[meF].G.L.M.[am]}$$$$V2.0)
1.5 | < 10 | 51 | 0.072 | CSCC[C@H](NC(=O)[C@H](CC(C)C)NC(=O)CNC(=O)[C@H](Cc1ccccc1)N(C)C(=O)[C@H](Cc1ccccc1)NC(=O)[C@H](Cc1ccc(O)cc1)NC(=O)[C@H](CC(=O)O)NC(=O)[C@H](Cc1cnc[nH]1)NC(=O)[C@H](CCSC)NC(=O)[C@@H](N)CC(=O)O)C(N)=O (HELM PEPTIDE1{D.M.H.D.Y.F.[meF].G.L.M.[am]}$$$$V2.0)
